For assay [1], the target named is T1, human FGFR3 V555L enzyme (cytoplasmic domain carrying V555L mutation) (Homo sapiens, UniProt P22607, V555L).
T1 construct: cytoplasmic domain carrying V555L mutation, from Cama Biosciences; purchased Cama Biosciences (so in the source)
As to the kind of experiment: FGFR3 V555L mobility shift assay (enzymatic assay). In kind it is biochemical. Particulars: 40 μM ATP, 50 minutes at 30° C.; read-out: FGFR3 V555L Caliper. As to the method: FGFR3 V555L Mobility Shift Assay (Enzymatic Assay)
(§1) In a final reaction volume of 25 μL, 0.04 ng/μL human FGFR3 V555L enzyme (cytoplasmic domain carrying V555L mutation, from Cama Biosciences) was incubated with 40 μM ATP, 1 μM FL-peptide 30 substrate and 250 nL of testing compound (1% DMSO final) in assay buffer (100 mM HEPES pH 7.4, 10 mM MgCl2, 0.003% Brij35, 1 mM DTT). After incubation for 50 minutes at 30° C. the reaction was stopped with 10 μL of 0.5M EDTA pH 8.0, and then 25 μL of reaction mixture was transferred to reading plate and measured on Caliper EZ reader II. The substrate-product conversion rate was used as raw data for normalization and concentration-response curve (10 dose points with 4× serial dilution, starting with 10 μM) was plotted using Prism to calculate IC50 (M), pIC50 (−log IC50) and HillSlope value.

Assay [2] has as its target T2, NIH/3T3 cells overexpressing FGFR3 WT-TACC3 fusion protein (Homo sapiens, UniProt P22607).
T2 construct: NIH/3T3 FGFR3 WT-TACC3 CTG; other: 72-hr incubation, CellTiter Glo; fused on or other part: C-terminal part of TACC3 (coiled-coil) fused behind the FGFR3 kinase domain; Q9Y6A5 (Transforming acidic coiled-coil-containing protein 3)
As to the kind of experiment: NIH/3T3 FGFR3 WT-TACC3 cell proliferation assay. It counts as cell-based. The settings on record: 72-hr incubation, CellTiter Glo; read-out: NIH/3T3 FGFR3 WT-TACC3 CTG. As to the method:
NIH/3T3 FGFR3 WT-TACC3 Cell Proliferation Assay
In day 1, 90 μL of cell suspension (NIH/3T3 cells overexpressing FGFR3 WT-TACC3 fusion protein) (total 30,000 cells per well in growth medium (DMEM containing 1% Glutamax, 10% FBS and 1% Pen/Strep)) was seeded in a 96-well plate and then incubated overnight at 37° C. and 5% CO2. In day 2, 10 μL of growth medium containing 10-fold stock solution of testing compound was added into cell cultures (9 dose points with 4× serial dilution, starting with 10 μM, 0.1% DMSO final). After 72-hr incubation at 37° C. and 5% CO2, in day 5 a volume of 50 μL CellTiter Glo (CTG) reagent was added into cell-containing 96-well plate and the plate was incubated at room temperature for 10 minutes before RLUs (relative light unit) were measured on a microplate reader with luminescence detection module. The RLU value was normalized to survival % and concentration-response curve was plotted using Prism to calculate IC50 (M), pIC50 (−log IC50) and HillSlope value.

Assay [3] deals with T3, human FGFR3 wild type enzyme (cytoplasmic domain) (Homo sapiens, UniProt P22607).
T3 construct: human FGFR3 wild type enzyme (cytoplasmic domain, from Cama Biosciences); purchased Cama Biosciences (so in the source)
T3 sequence (P22607 397-806 limits assumed): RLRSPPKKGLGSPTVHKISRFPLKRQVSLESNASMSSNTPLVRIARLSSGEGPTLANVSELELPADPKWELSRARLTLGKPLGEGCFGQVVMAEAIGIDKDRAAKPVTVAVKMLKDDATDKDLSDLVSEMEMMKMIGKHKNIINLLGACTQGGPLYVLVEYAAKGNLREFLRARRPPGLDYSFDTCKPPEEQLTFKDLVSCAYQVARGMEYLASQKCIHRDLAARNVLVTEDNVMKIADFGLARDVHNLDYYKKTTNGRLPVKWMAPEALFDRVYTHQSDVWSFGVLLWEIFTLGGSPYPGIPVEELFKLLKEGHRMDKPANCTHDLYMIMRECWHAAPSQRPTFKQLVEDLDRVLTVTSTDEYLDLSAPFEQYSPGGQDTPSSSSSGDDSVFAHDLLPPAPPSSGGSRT
As to the kind of experiment: FGFR3 wild type mobility shift assay (enzymatic assay). It counts as biochemical. Particulars: 75 μM ATP, 50 minutes at 30° C.; read-out: FGFR3 wild type Caliper. The method, then:
FGFR3 Wild Type Mobility Shift Assay (Enzymatic Assay)
as §1, with “wild type” for “V555L”, “domain,” for “domain carrying V555L mutation,”, “75” for “40”

This note sets out measurements from patent publication US12398155B2, “Thienopyridinone compounds” (Janssen Pharmaceutica NV, priority 2019, dated 2025).

T1 sequence (P22607 397-806 V555L limits assumed): as the sequence (P22607 397-806 limits assumed) above, with V159L counted along it
T2 sequence (P22607 whole entry, change not shown, the tested form may be a part): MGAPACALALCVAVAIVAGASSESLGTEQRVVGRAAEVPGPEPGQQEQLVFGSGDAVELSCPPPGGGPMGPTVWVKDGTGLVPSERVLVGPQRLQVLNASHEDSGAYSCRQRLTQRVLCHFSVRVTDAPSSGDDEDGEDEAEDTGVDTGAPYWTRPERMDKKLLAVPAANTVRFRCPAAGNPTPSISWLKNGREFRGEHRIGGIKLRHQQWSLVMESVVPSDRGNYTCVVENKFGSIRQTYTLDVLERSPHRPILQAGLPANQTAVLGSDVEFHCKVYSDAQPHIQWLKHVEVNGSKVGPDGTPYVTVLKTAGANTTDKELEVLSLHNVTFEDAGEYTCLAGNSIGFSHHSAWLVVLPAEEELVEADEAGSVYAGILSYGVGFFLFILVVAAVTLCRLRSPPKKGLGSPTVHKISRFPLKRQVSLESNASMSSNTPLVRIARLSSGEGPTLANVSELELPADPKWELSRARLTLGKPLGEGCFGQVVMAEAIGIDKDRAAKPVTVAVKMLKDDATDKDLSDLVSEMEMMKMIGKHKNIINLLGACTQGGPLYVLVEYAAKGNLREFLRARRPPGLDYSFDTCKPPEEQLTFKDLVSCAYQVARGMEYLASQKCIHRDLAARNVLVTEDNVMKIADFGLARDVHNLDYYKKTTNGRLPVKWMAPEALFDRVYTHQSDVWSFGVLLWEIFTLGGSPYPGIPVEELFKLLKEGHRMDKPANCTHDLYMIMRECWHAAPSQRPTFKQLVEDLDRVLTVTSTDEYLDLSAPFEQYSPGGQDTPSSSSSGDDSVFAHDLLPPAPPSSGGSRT

As to `C[C@H](Nc1c(-c2nc3cnc(N4CCOCC4)cc3[nH]2)c(=O)[nH]c2ccsc12)c1ncccn1` [Compound 2, (S)-6-(6-Morpholino-1H-imidazo[4,5-c]pyridin-2-yl)-7-((1-(pyrimidin-2-yl)ethyl)amino)thieno[3,2-b]pyridin-5(4H)-one], the IC50 worked out at 0.32 nM in assay [1] and 0.31 nM in assay [3]. Also, the GI50 in assay [2] was found to be 0.85 nM.
